This note sets out measurements from US20250000785A1, “COSMETIC COMPOSITION COMPRISING CRANBERRY EXTRACT AND CRANBERRY SEED OIL” (Givaudan SA, priority 2021, published 2025).

This assay relates to TNF-α release of Normal Human Epidermal Keratinocytes (NHEKs) stressed with PMA. The experiment in a line: TNF-α release by NHEKs stressed with PMA (ELISA quantification, normalised with MTT). It is filed as cell-based. The following applies: dexamethasone 1 μM, 24 h pre-incubation, then PMA 1 ng/ml 24 h; vs untreated PMA-stressed NHEKs; p<0.001. As for the experimental part:
The effect of a cranberry extract, a cranberry seed oil and combinations of a cranberry extract and a cranberry seed oil on the anti-inflammatory activity of keratinocytes stressed with PMA was evaluated by comparing the decrease of the cytokine TNF-α release of Normal Human Epidermal Keratinocytes (NHEKs) treated with the cranberry products and stressed with PMA (Phorbol 12-myristate 13-acetate) with the TNF-α release of untreated NHEKs stressed with PMA.
The cell culture was done on primary cells isolated from fresh biopsies. NHEKs were seeded in a type I collagen pre-coated 24 wells-plate at 30 000 cells per well in triplicate. […]
A MTT assay was performed to evaluate treatments toxicity and for the normalisation of TNF-α quantification.
MTT solution (Sigma) diluted at 1 mg/mL in basal medium was added to each well and incubated for 3 hours at 37° C., 5% CO2. […] The optical density was measured at a wavelength of 560 nm.
The TNF-α quantification was realized with the Human TNF-alpha Quantikine ELISA kit (DTA00D, R&D Systems).
The samples and the standard range were incubated for 2 hours in 96-wells plate pre-coated with a monoclonal antibody specific for human TNF-α in presence of the Assay Diluent RD1F. […] The optical density was measured at 450 nm and 540 nm with a microplate reader (TECAN SPARK® 10M). […]
The quantification was carried out in duplicate. […]

Consider `C[C@@H]1C[C@H]2[C@@H]3CCC4=CC(=O)C=C[C@]4(C)[C@@]3(F)[C@@H](O)C[C@]2(C)[C@@]1(O)C(=O)CO` [dexamethasone, Dexamethasone], for which the “reduction of the release of cytokine TNF-α” value was determined as 46%.
